Data: patent US8252832B2, “Kinesin inhibitors as cancer therapeutics” (Novartis AG, priority 2007, dated 2012)
Like-named read-outs stand apart in the source and are kept apart here.

How the values were obtained:
Assay in all cases: CellTiter-Glo, NCI60 panel
Type in all cases: cell-based
[1] = test system: NCI-H522; settings: NSCL; for GI50: Homo sapiens
Source text: (§1) Identification of tumor types that are the most sensitive to the KSP inhibitors of the present invention can be accomplished using an unbiased approach that uses several cell-based assays. The assays chosen were as follows: • CellTiter-Glo®. This is an assay designed to measure ATP concentration in a cell culture, and can be correlated to cell number. Briefly CellTiter-Glo® (Promega Corporation) is a homogeneous method using the single CellTiter-Glo® reagent to detect ATP wherein ATP in the assay drives the activity of a thermostable luciferase to create a luminescent signal which can then be measured and correlated with the number of viable cells. Briefly, for adherent cells, 1,000 to 5,000 cells/well were plated in 96-well plates (100 μl/well) and let to adhere for 24 hours before being treated with drug. For non-adherent cells, 1,000 to 10,000 cells/well were plated in 96-well plates (100 μl/well) and immediately treated with drug. Drug dilutions were prepared in DMSO at 1000 times the final concentration. These dilutions were then diluted 1/100 in growth media before being added to the cells (11 μl/well) to achieve the desired final concentration. After 48 h in a 37° C. tissue culture incubator, the plates were processed for the CellTiter-Glo®assay according to the manufacturer's instructions. Protocol for a 72 hour cell proliferation assay: The 72 hour assay was performed the same way as the 48 hour assay except for the following modifications: For adherent cells, 500 to 5,000 cells/well were plated in 96-well plates (90 μl/well cell growth media) and left to adhere for 24 hours before being treated with drug. For non-adherent cells, 1,000 to 10,000 cells/well were plated in 96-well plates (90 μl/well cell growth media) and immediately treated with drug. Data values presented represent the concentration of test compound required for a 50% reduction in growth. • LDH release. The Cytotoxicity Detection KitPLUS (LDH) assay (Roche Diagnostics, Manheim, Germany) measures the amount of LDH released in the media by dying cells; LDH catalyzes the conversion of lactate into pyruvate. The enzymatic reaction is coupled to a chemical reaction that uses a tetrazolium salt to form a formazan that is red and can be detected by its absorbance at 490 nm. This assay measures the amount of cell death after drug treatment. Cells were plated at 10,000 cells/well in 96-well plates (100 μl/well). Adherent cells were let to adhere for 24 hours before being treated with drug, whereas non-adherent cells were immediately treated with drug. Drug dilutions were prepared in DMSO at 1000 times the final concentration. These dilutions were then diluted 1/100 in growth media before being added to the cells (11 μl/well) to achieve the desired final concentration. After 48 h in a 37° C. tissue culture incubator, the plates were processed for the Cytotoxicity Detection KitPLUS (LDH) assay according to the manufacturer's instructions. The media only values were subtracted from all the data points before analysis. Data values presented correspond to the compound concentration wherein LDH output is at half maximal level. • Caspase-Glo® 3/7. The Caspase-Glo® 3/7 Assay (Promega Corporation) is a homogeneous luminescent assay that measures caspase-3/7 activities. The assay provides a proluminescent caspase-3/7 DEVD-aminoluciferin substrate and a thermostable luciferase in a reagent optimized for caspase-3/7 activity, luciferase activity and cell lysis. Adding the single Caspase-Glo® 3/7 Reagent results in cell lysis, followed by caspase cleavage of the substrate. This liberates free aminoluciferin, which is consumed by the luciferase, generating a luminescent signal. The signal is proportional to caspase-3/7 activity. Data values presented correspond to the compound concentration wherein caspase 3/7 activity is at half maximal level. […]

[2] = test system: BT-474; settings: Breast; for GI50: Homo sapiens
Source text: as §1

[3] = test system: SK-MEL-2; settings: Melanoma; for GI50: Homo sapiens
Source text: as §1

[4] = test system: MCF7; settings: Breast; for GI50: Homo sapiens
Source text: as §1

[5] = test system: SF-539; settings: CNS; for GI50: Homo sapiens
Source text: as §1

[6] = test system: NCI/ADR-RES; settings: Ovarian; for GI50: Homo sapiens
Source text: as §1

[7] = test system: KM12; settings: Colon; for GI50: Homo sapiens
Source text: as §1

[8] = test system: OVCAR-3; settings: Ovarian; for GI50: Homo sapiens
Source text: as §1

[9] = test system: SW-620; settings: Colon; for GI50: Homo sapiens
Source text: as §1

[10] = test system: OVCAR-8; settings: Ovarian; for GI50: Homo sapiens
Source text: as §1

[11] = test system: 786-0; settings: Renal; for GI50: Homo sapiens
Source text: as §1

[12] = test system: K-562; settings: for GI50: Homo sapiens, K562, Leukemia
Source text: as §1

[13] = test system: A498; settings: Renal; for GI50: Homo sapiens
Source text: as §1

[14] = test system: PC-3; settings: Prostate; for GI50: Homo sapiens
Source text: as §1

[15] = test system: SN12C; settings: Renal; for GI50: Homo sapiens
Source text: as §1

[16] = test system: HCC-2998; settings: Colon; for GI50: Homo sapiens
Source text: as §1

[17] = GI50 in nM, read-out: Log(GI50) (converted)

CC(C)(C)[C@H](c1nc(-c2cc(F)ccc2F)cn1Cc1ccccc1)N(CC[C@H](N)CF)C(=O)CO [Compound IIa]
GI50 [1, 17]: 0.166 nM | GI50 ([1]; read-out: GI50): 0.166 nM | Differential vs mean Log(GI50) [1]: 1.111 | Differential vs mean Log(GI50) [2]: −0.669 | GI50 [2, 17]: 10 nM | GI50 ([2]; read-out: GI50): 10 nM | GI50 [3, 17]: 2.77 nM | GI50 ([3]; read-out: GI50): 2.77 nM | Differential vs mean Log(GI50) [3]: −0.112 | Differential vs mean Log(GI50) [4]: −0.669 | GI50 [4, 17]: 10 nM | GI50 ([4]; read-out: GI50): 10 nM | Differential vs mean Log(GI50) [5]: 0.743 | GI50 [5, 17]: 0.387 nM | GI50 ([5]; read-out: GI50): 0.387 nM | GI50 [6, 17]: 4.18 nM | GI50 ([6]; read-out: GI50): 4.18 nM | Differential vs mean Log(GI50) [6]: −0.290 | Differential vs mean Log(GI50) [7]: 0.705 | GI50 [7, 17]: 0.423 nM | GI50 ([7]; read-out: GI50): 0.423 nM | GI50 [8, 17]: 10 nM | GI50 ([8]; read-out: GI50): 10 nM | Differential vs mean Log(GI50) [8]: −0.669 | Differential vs mean Log(GI50) [9]: 0.958 | GI50 [9, 17]: 0.236 nM | GI50 ([9]; read-out: GI50): 0.236 nM | GI50 [10, 17]: 0.324 nM | GI50 ([10]; read-out: GI50): 0.324 nM | Differential vs mean Log(GI50) [10]: 0.821 | GI50 [11, 17]: 10 nM | GI50 ([11]; read-out: GI50): 10 nM | Differential vs mean Log(GI50) [11]: −0.669 | GI50 [12, 17]: 0.218 nM | GI50 ([12]; read-out: GI50): 0.218 nM | Differential vs mean Log(GI50) ([12]; Leukemia): 0.993 | GI50 [13, 17]: 10 nM | GI50 ([13]; read-out: GI50): 10 nM | Differential vs mean Log(GI50) [13]: −0.669 | GI50 [14, 17]: 10 nM | GI50 ([14]; read-out: GI50): 10 nM | Differential vs mean Log(GI50) [14]: −0.669 | GI50 [15, 17]: 10 nM | GI50 ([15]; read-out: GI50): 10 nM | Differential vs mean Log(GI50) [15]: −0.669 | Differential vs mean Log(GI50) [16]: 0.547 | GI50 [16, 17]: 0.608 nM | GI50 ([16]; read-out: GI50): 0.608 nM
